# Source: ChEMBL document CHEMBL1146557, “An antiinflammatory galactolipid from rose hip (Rosa canina) that inhibits chemotaxis of human peripheral blood neutrophils in vitro” (J Nat Prod, 2003)
# Experiments:
# [1] = Inhibition of chemotaxis in human polymorphonuclear leukocytes assessed as inhibition of migration towards zymosan-activated human serum at 100 ug/ml after 30 mins by Boyden chamber technique; assay type: functional; settings: 0.5 h
# [2] = Cytotoxicity against human polymorphonuclear leukocyte assessed as cell viability at 50 to 100 ug/ml by trypan blue exclusion method; settings: polymorphonuclear leukocytes, read-out: INH
# [3] = Inhibition of chemotaxis in human polymorphonuclear leukocytes assessed as inhibition of migration towards zymosan-activated human serum at 50 ug/ml after 30 mins by Boyden chamber technique; assay type: functional; settings: 0.5 h
# [4] = Inhibition of chemotaxis in human polymorphonuclear leukocytes assessed as inhibition of migration towards zymosan-activated human serum at 10 ug/ml after 30 mins by Boyden chamber technique; assay type: functional; settings: 0.5 h
# [5] = Inhibition of chemotaxis in human polymorphonuclear leukocytes assessed as inhibition of migration towards zymosan-activated human serum at 1 ug/ml after 30 mins by Boyden chamber technique; assay type: functional; settings: 0.5 h
# [6] = Inhibition of chemotaxis in human polymorphonuclear leukocytes assessed as inhibition of migration towards zymosan-activated human serum at 0.1 ug/ml after 30 mins by Boyden chamber technique; assay type: functional; settings: 0.5 h
compound,measurement,setting,value
"CC/C=C\C/C=C\C/C=C\CCCCCCCC(=O)OC[C@H](CO[C@@H]1O[C@H](CO)[C@H](O)[C@H](O)C1O)OC(=O)CCCCCCC/C=C\C/C=C\C/C=C\CC (single isomer, unassigned)",inhibition at 100 µg/mL,[1],82%
same,viability,[2],100%
same,inhibition at 50 µg/mL,[3],77%
same,inhibition at 10 µg/mL,[4],62%
same,inhibition at 1 µg/mL,[5],64%
same,inhibition at 0.1 µg/mL,[6],7%
